Measured values from US11180509B2, “Thiazolidone spiro pyrimidine trione compound, preparation method therefor and uses thereof” (SHANGHAI INSTITUTE OF MATERIA MEDICA, CHINESE ACADEMY OF …, priority 2017, dated 2021).
In brackets after ≈: the same amount, converted by molar mass. Where two headings read alike, the source gives them in different places.

How the values were obtained:
Streptococcus pyogenes = test: In vitro antibacterial activity, MIC by micro broth dilution; type: cell-based; settings: read-out: MIC Spy
From the text: (§1) The following strains isolated in clinic were used in antibacterial activity screening in vitro: five strains of methicillin-resistant Staphylococcus aureus or MRSA, five strains of methicillin-sensitive Staphylococcus aureus or MSSA, five strains of methicillin-resistant Staphylococcus epidermidis or MRSE, five strains of methicillin-sensitive Staphylococcus epidermidis or MSSE, three strains of penicillin-resistant Streptococcus pneumoniae or PRSP, and three strains of Streptococcus pyogenes.
(§2) The above strains were clinically isolated pathogenic bacteria collected in Sichuan and Beijing in December 2015. They were identified by the collection unit via a VITEK-60 automatic microbiological identification instrument, and then re-identified by conventional methods in the laboratory. Before the experiment, each strain was purified by a single colony on an agar plate, and the cells freshly cultured at 37° C. overnight were appropriately diluted for the experiment. Quality control strain was Staphylococcus aureus ATCC25923 purchased from the Clinical Testing Center of the Ministry of Health of the People's Republic of China.
(§3) Medium: MH (Mueller-Hinton, hydrolyzed casein) broth (OXOID);
(§4) Culture condition: Incubate at 35-37° C. for 16-18 h.
(§5) The MIC value of each test sample for the tested strain was determined by micro broth dilution method recommended by Performance Standards for Antimicrobial Susceptibility Testing (Twenty-Third Informational Supplement; M02-A11, M07-A9 and M11-A8, 2013) of American Clinical and Laboratory Standards Institute (CLSI).
(§6) After diluting each test sample to different concentrations in MH broth, 100 μl of each sample solution at different concentrations was pipetted into a sterilized 96-well polystyrene plate. In the first to twelfth wells, the drug solution was added, and the final drug concentrations in each well were 64, 32, 16, 8, 4, 2, 1, 0.5, 0.25, 0.125, 0.06, and 0.03 mg/L. The well without drug and without bacteria was set as blank control well. The well with bacteria and without drug was set as a bacterial growth control well.
(§7) The test bacterial solution was adjusted with physiological saline to a bacterial suspension equivalent to 0.5 Maisson turbidity standard, and diluted 1:100 with MH broth. The drug solution was added so that the final concentration of the bacterial solution was about 10^4 CFU/ml; then 100 μl of bacterial solution was pipetted into the above wells (the total volume in each well was 200 μl). The plate was sealed and placed in a 35-37° C. incubator for 18-20 h, and then the results were determined. […] When Streptococcus pneumoniae was tested, sterile defibrillated sheep blood was added into the Colombian broth culture medium at a final concentration of 5% and cultivation was conducted in a 5% CO2 and 35-37° C. incubator for 18-20 hours.

[1] = tested on: methicillin-resistant Staphylococcus aureus or MRSA; test: as above; type: cell-based; settings: read-out: MIC MRSA
From the text: as §1, §2, §3, §4, §5, §6, §7

[2] = tested on: methicillin-resistant Staphylococcus epidermidis or MRSE; test: as above; type: cell-based; settings: read-out: MIC MRSE
From the text: as §1, §2, §3, §4, §5, §6, §7

[3] = tested on: methicillin-sensitive Staphylococcus aureus or MSSA; test: as above; type: cell-based; settings: read-out: MIC MSSA
From the text: as §1, §2, §3, §4, §5, §6, §7

[4] = tested on: methicillin-sensitive Staphylococcus epidermidis or MSSE; test: as above; type: cell-based; settings: read-out: MIC MSSE
From the text: as §1, §2, §3, §4, §5, §6, §7

[5] = tested on: penicillin-resistant Streptococcus pneumoniae or PRSP; test: as above; type: cell-based; settings: read-out: MIC PRSP
From the text: as §1, §2, §3, §4, §5, §6, §7

[6] = In vivo pharmacokinetics test in mice (oral); design: species or system CD-1 mice; settings: PO 10.0 mg/kg; for AUC0→t relative to AZD0914 / Cmax relative to AZD0914: multiple of the AZD0914 value; for AUC0→t / Cmax / MRT / t1/2 / Tmax: plasma
Method: Healthy female CD-1 mice were randomly divided into five groups and each group comprised three mice. The tested compound was administered orally.
0.030 mL of blood was taken from the orbit of each animal each time and anticoagulated with EDTAK2. The collection time was as follows. PO group: 15 m, 30 mi, 1 h, 2 h, 4 h, 6 h, 8 h, and 24 h after administration of the test compound. The collected blood samples were placed on ice and centrifuged within 30 minutes to separate the plasma (centrifugation conditions: 5000 rpm, 10 minutes, room temperature). The samples were stored at −80° C. before analysis.

[7] = tested on: MRSA, MSSA, MRSE, MSSE, PRSP, and Spy; test: In vitro antibacterial activity over the whole strain panel, compared with AZD0914; type: cell-based; settings: against MRSA
From the text: as §1, §2, §5, §6, §7

[8] = 3 clinical strains, range over strains

Structure (SMILES)	MIC (Streptococcus pyogenes) [µg/mL]	MIC [1] [µg/mL]	MIC [2] [µg/mL]	MIC [3] [µg/mL]	MIC [4] [µg/mL]	MIC [5] [µg/mL]	MIC (Streptococcus pyogenes; [8]) [µg/mL]	MIC ([4]; 5 clinical strains, range over strains) [µg/mL]	MIC [5, 8] [µg/mL]	AUC0→t relative to AZD0914 [6] [times)]	Cmax relative to AZD0914 [6] [times)]	AUC0→t [6] [ng·h/mL]	Cmax [6] [ng/mL]	MRT [6] [h]	t1/2 [6] [h]	Tmax ([6]; female, CD-1, mouse, read-out: Tmax) [h]	Tmax [6] [h]	in vitro antibacterial activity relative to AZD0914 [7]
C[C@@H]1CN2c3c(cc4c(N5C(=O)S[C@@H]6CCC[C@@H]65)noc4c3F)CC3(C(=O)NC(=O)NC3=O)[C@H]2[C@H](C)O1 [Compound 21, (2R,4S,4aS)-11-fluoro-2,4-dimethyl-8-((3aS,6aR)-2-oxotetrahydro-2H-cyclopentane[d]thiazol-3(3aH)-yl)-1,2,4,4a-tetrahydro-2′H,6H-spiro[isoxazole[4,5-g][1,4]oxazine [4,3-a]quinoline-5,5′-pyrimidine]-2′,4′,6′(1′H,3′H)-trione]	0.03 to 0.125 (≈ 0.0567 to 0.236 µM)	0.03 to 0.125 (≈ 0.0567 to 0.236 µM)	0.03 to 0.06 (≈ 0.0567 to 0.113 µM)	0.03 to 0.125 (≈ 0.0567 to 0.236 µM)	0.03 to 0.125 (≈ 0.0567 to 0.236 µM)	0.03 to 0.125 (≈ 0.0567 to 0.236 µM)												
C[C@H]1COc2c(N3CCN(C)CC3)c(F)cc3c(=O)c(C(=O)O)cn1c23 [levofloxacin, reference compound]							0.5 to 1 (≈ 1.38 to 2.77 µM)	0.5 to 4 (≈ 1.38 to 11.1 µM)	1 (≈ 2.77 µM)									
COC[C@H]1CN(c2noc3c(F)c4c(cc23)CC2(C(=O)NC(=O)NC2=O)[C@H]2[C@H](C)O[C@H](C)CN42)C(=O)S1 [Compound 8, (2R,4S,4aS)-11-fluoro-8-((R)-5-(methoxymethyl)-2-oxothiazolin-3-yl)-2,4-dimethyl-1,2,4,4a-tetrahydro-2′H,6H-spiro[isoxazole[4,5-g][1,4]oxazine[4,3-a]quinoline-5,5′-pyrimidine]-2′,4′,6′(1′H,3′H)-trione]	0.25 to 0.5 (≈ 0.469 to 0.937 µM)	0.03 to 0.5 (≈ 0.0562 to 0.937 µM)	0.03 (≈ 0.0562 µM)	0.03 to 0.25 (≈ 0.0562 to 0.469 µM)	0.03 to 0.125 (≈ 0.0562 to 0.234 µM)	0.03 to 0.5 (≈ 0.0562 to 0.937 µM)				~11	~11	8240 ± 940	2051 ± 88	3.72 ± 0.76	2.51 ± 0.08	0.583 ± 0.382		
CC[C@@H]1CN(c2noc3c(F)c4c(cc23)CC2(C(=O)NC(=O)NC2=O)[C@H]2[C@H](C)O[C@H](C)CN42)C(=O)S1 [Compound 16, (2R,4S,4aS)-8-((R)-5-ethyl-2-oxothiazol-3-yl)-11-fluoro-2,4-dimethyl-1,2,4,4a-tetrahydro-2′H,6H-spiro[isoxazole[4,5-g][1,4]oxazine[4,3-a]quinoline-5,5′-pyrimidine]-2′,4′,6′(1′H,3′H)-trione]	< 0.03	0.03 to 0.06 (≈ 0.058 to 0.116 µM)	< 0.03	0.03 to 0.06 (≈ 0.058 to 0.116 µM)	< 0.03	0.03 to 0.06 (≈ 0.058 to 0.116 µM)				~11	~13	8057 ± 1469	2376 ± 411	3.45 ± 0.788	1.59 ± 0.495		1.17 ± 0.764	about 8 times
CC[C@H]1CN(c2noc3c(F)c4c(cc23)CC2(C(=O)NC(=O)NC2=O)[C@H]2[C@H](C)O[C@H](C)CN42)C(=O)S1 [Compound 19, (2R,4S,4aS)-8-((S)-5-ethyl-2-oxothiazol-3-yl)-11-fluoro-2,4-dimethyl-1,2,4,4a-tetrahydro-2′H,6H-spiro[isoxazole[4,5-g][1,4]oxazine[4,3-a]quinoline-5,5′-pyrimidine]-2′,4′,6′(1′H,3′H)-trione]	< 0.03	< 0.03	< 0.03	< 0.03	0.03 to 0.06 (≈ 0.058 to 0.116 µM)	0.03 to 0.06 (≈ 0.058 to 0.116 µM)												about 8 times
